# Laboratory results published in patent publication US8680137B2, “Agents and methods for treating ischemic and other diseases” (Nono Inc., priority 2009, dated 2014).
# “Also recorded” adds a separate entry of the source. Where two headings read alike, the source gives them in different places.
# Key:
# [1] = tested on: primary cultured mouse cortical cells; experiment: OGD-induced anoxic death in murine primary neuronal cell cultures, PI fluorescence; format: cell-based; settings: 1 to 3 hours OGD, with or without MCN, applied prior to or following OGD
# Method: TRPM7 inhibitors were tested for their ability to reduce anoxic death in murine primary neuronal cell cultures subjected to 1 to 3 hours of OGD. This assay was generally performed as described by Aarts et al (2003). In brief, mixed cortical cultures enriched with neurons (85%) were prepared and used for experiments after 12-14 days in vitro. The cultures were transferred to an anaerobic chamber containing 5% CO2, 10% H and 85% N2. Cultures were washed 3× with 500 μl deoxygenated glucose free bicarbonate solution and maintained anoxic for the appropriate duration at 37° C. OGD was terminated by washing the cultures with oxygenated glucose-containing bicarbonate solution, and the cultures were further maintained 1-24 hours in a humidified 5% CO2 atmosphere. Cell death wash generally measured by fluorescence measurement of PI (50 ug/ml) in a multiwall plate reader (CytoFluor II, Perseptive Biosystems).
# retinal explants = experiment: OGD in cultured ex vivo retinal explants; format: cell-based, rat; settings: 1 hr OGD
# Method: The ability of TRPM7 inhibitors to protect other types of cell cultures following exposure to anoxia, including non-neuronal cell cultures, has also been tested. In general, cultures of growing cells are exposed to a 1-6 hour period of anoxia, followed by addition of a TRPM7 at a range of concentrations upon removal from anoxic conditions. […] This implies that TRPM7 inhibitors may be useful both as a treatment for anoxic damage to patients presenting symptoms of a disorder associated with anoxic damage, or as a preventative measure. Such preventative measures can be chronic, such as treatment to protect against damage from heart attacks or strokes, or acute, to be given prior to or during surgical procedures, which may include but not be limited to procedures that involve endovascular invasion and have the possibility of dislodging material that may block blood flow through arteries. Other types of preventative measures can include the reduction of anoxic damage associated with cardiovascular issues (heart attack, myocardial infarction, acute ischemic attacks, atrial fibrillation, etc), brain disorders (stroke, neurotrauma, etc), diabetic disorders (blindness, deafness, neuropathy), retinal/eye disorders (glaucoma, macular degeneration, blindness), aural disorders (deafness, progressive deafness, hearing loss), muscle disorders (weakness, myodegenerative disease, disorders associated with mitochondrial depletion), and organ disorders (kidney, lung, liver disorders associated with ischemia or anoxic damage).
# Acute and chronic retinal ischemia are major causes of blindness. Retinal damage from glaucoma, also termed “slow excitotoxicity” afflicts millions of people each year and is the second leading cause of blindness worldwide (after cataracts). Diabetic retinopathy is also very common, afflicting about 40% of diabetics and, while less commonly producing complete blindness, is a leading cause of visual impairment. The retina is an extension of the CNS, and was the first organ in which excitotoxicity was described. […]
# H9c2 cells = experiment: OGD-induced cell death in H9c2 cardiomyocytes, PI uptake; format: cell-based, rat; settings: for resilience to OGD: 0.05-5.0 μM; for protection against OGD-induced death, pre-treatment: pre-treatment before OGD
# Method: The rat cardiomyoblast cell line H9c2 was obtained from the American Type Culture Collection (CRL-1446) and cultured in Dulbecco's Modified Eagle Medium supplemented with 10% (v/v) heat-inactivated fetal bovine serum and 1% antibiotic-antimycotic. Cells were grown in an atmosphere of […]/5% CO2 in a humidified incubator.
# H9c2 cells were made anoxic by replacing the medium with de-oxygenated Ischemic buffer (in mM: 1.13 CaCl2, 5 KCl, 0.3 KH2PO4, 0.5 MgCl2, 0.4 MgSO4, 128 NaCl, 10 HEPES) and by transferring them to an anaerobic chamber (5% CO2, 10% H2, 85% N2) for 6 hrs or 16 hrs at 37° C. OGD was terminated by washing the cells with oxygenated glucose-containing Control buffer (in mM: 1.13 CaCl2, 5 KCl, 0.3 KH2PO4, 0.5 MgCl2, 0.4 MgSO4, 128 NaCl, 10 HEPES 10 Glucose). Cultures were maintained for another 2 hrs at 37° C. in a humidified 5% CO2 atmosphere. Normoxic cells were maintained in Control buffer for the duration of the experiment.
# Cell death was determined by fluorescence measurements of PI (5 μg/ml) using a multiwell plate fluorescence scanner. The fraction of dead cells in each culture was calculated as: fraction dead=(Ft−F0)/Fmax where Ft=PI fluorescence at 2 hrs post-OGD, F0=initial PI fluorescence immediately after the OGD treatment, and Fmax=PI fluorescence of the same cultures following 20 mins incubation in 1% TritonX-100.
# H9c2 cells were cultured and subjected to OGD as described supra. FIG. 71 panels A and B show the results of exposure to M21 or M5 for 24 hours following 6 hours of OGD. FIG. 71 panels C and D show the results of H9c2cells were treated with either 1 mM Mg^2+, 5 μM M6, M11 (acute treatment) during the anoxic and recovery periods, or 1 μM nifedipine. Results are presented as mean±SEM (n=4).
# [2] = tested on: Weri retinoblastoma cells; experiment: Cancer cell proliferation, Weri; format: cell-based; settings: >20% inhibition at 48-96 hours, MTT, SRB, luminescence or BrDU
# Method: (§1) To determine the breadth of efficacy in cancers, we examined the efficacy of a range of TRPM7 inhibitors for their ability to inhibit cell proliferation in cancer cell lines. Representative figures are included as examples.
# (§2) Cells (Table 1) were grown to 70% confluency, trypsinized, counted, and seeded in 96-well flat-bottom plates at a final concentration of 2.5×10^3-5.0×10^3 cells/well in growth media containing 5% FBS (Day 0). Other well sizes and cell densities were used successfully as well. Cells were allowed to incubate in growth media for 24 hours to allow for maximum adhesion. Treatment with the test agent began on Day 1 and continued for 72 hours either with or without retreatment. At the 72 hour time point, viable cell numbers are quantified by the CellTiter-Glo® cell viability assay as described above, or using standard MTT, SRB or BrDU assays. Experiments were repeated at least twice with the same concentrations to determine growth inhibitory activity.
# (§3) Data Collection—For the cell proliferation studies, data from each experiment was collected and expressed as % Cell Growth using the following calculation: % Cell Growth=(ftest/fvehicle)×100 Where ftest is the luminescent signal of the tested sample, and fvehicle is the luminescence of the vehicle in which the drug is dissolved (or appropriate measure for the other viability/proliferation measures). Dose response graphs and IC50 values were generated using standard software using the following variable slope equation: […]
# B16F10 melanoma cells = experiment: Cancer cell proliferation, B16F10; format: cell-based, mouse; settings: for proliferation: B16F10, FIG. 81; for Demonstrated Reduction of Proliferation at or below 10 μM Inhibitor concentration: B16F10, >20% inhibition at 48-96 hours, MTT, SRB, luminescence or BrDU; for IC50: Mus musculus
# Method: as §1, §2, §3
# TRPM7 = TRPM7 (Mus musculus, UniProt Q923J1); experiment: Whole-cell patch clamp recording of TRPM7 currents in HEK293 cells expressing TRPM7; settings: for TRPM7 currents, applied intracellularly: in intracellular recording fluid, final concentration 2 mM, 10-20 minutes; for TRPM7 currents, extracellular application: tested at 0.3, 1, 3, 10 and 30 μM
# Chain of TRPM7 (Q923J1 whole entry): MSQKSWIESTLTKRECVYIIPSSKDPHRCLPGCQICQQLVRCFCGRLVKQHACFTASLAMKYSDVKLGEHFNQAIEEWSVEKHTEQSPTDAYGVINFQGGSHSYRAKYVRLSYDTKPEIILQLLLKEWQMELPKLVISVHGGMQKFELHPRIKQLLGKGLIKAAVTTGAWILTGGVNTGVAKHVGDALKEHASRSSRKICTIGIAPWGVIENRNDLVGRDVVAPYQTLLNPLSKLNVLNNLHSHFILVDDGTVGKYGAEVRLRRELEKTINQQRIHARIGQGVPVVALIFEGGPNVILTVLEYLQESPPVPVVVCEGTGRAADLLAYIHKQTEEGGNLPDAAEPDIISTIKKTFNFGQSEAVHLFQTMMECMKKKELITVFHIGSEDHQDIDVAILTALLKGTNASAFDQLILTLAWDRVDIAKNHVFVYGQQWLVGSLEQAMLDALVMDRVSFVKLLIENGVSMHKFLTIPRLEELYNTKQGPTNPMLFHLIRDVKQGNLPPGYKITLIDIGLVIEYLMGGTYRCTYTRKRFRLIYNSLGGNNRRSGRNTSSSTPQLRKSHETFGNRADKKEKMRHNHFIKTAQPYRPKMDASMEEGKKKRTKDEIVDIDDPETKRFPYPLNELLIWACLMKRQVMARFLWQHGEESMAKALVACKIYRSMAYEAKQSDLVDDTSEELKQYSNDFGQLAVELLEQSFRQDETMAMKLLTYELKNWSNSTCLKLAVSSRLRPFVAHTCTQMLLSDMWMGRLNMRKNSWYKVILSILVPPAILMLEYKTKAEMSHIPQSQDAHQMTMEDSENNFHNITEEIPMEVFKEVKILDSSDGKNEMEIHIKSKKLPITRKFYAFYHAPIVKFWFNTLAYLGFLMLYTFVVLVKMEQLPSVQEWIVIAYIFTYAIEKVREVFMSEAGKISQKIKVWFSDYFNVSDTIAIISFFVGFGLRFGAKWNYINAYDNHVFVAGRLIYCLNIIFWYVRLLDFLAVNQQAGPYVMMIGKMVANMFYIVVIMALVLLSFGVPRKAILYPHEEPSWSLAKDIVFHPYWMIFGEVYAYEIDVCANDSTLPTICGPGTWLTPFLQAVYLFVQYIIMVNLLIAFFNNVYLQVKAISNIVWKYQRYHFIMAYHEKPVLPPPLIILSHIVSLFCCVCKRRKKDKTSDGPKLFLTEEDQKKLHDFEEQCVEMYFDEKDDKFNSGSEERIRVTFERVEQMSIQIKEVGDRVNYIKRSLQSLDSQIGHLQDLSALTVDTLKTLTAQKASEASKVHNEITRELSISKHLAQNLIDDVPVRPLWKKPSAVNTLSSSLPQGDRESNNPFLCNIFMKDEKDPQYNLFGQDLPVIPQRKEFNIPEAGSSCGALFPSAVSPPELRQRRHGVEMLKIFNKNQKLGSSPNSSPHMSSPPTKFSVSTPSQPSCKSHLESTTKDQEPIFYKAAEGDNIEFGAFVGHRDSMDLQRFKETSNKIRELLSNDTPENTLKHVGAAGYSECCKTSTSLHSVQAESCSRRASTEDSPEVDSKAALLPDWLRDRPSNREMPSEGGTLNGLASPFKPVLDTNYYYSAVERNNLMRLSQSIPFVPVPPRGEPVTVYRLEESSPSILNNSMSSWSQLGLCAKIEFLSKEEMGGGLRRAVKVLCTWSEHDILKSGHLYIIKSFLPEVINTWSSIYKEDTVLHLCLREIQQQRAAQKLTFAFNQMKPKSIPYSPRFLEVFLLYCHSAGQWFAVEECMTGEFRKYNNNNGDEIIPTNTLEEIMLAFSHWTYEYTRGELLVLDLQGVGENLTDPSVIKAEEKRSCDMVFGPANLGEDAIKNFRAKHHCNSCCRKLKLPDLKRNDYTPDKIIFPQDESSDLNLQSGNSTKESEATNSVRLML
# Method: Whole-cell patch clamp recordings were used essentially as described to test the TRPM7 inhibitors in HEK293 cells, H9c2 cardiomyocytes and cultured neurons. Each test compound was tested at 0.3, 1, 3, 10 and 30 μM, or as high as solubility permits.
# To assess whether the M-compounds were inhibiting TRPM7 currents from an intracellular or extracellular location, M21 and M6 were dissolved in DMSO at 10 mM as stock, then diluted into intracellular recording fluid (ICF) to final concentration of 2 mM Immediately start recording of the TRPM7 like currents to RAMP change of membrane potentials after making the whole cell. Recording lasts for 10-20 minutes to compare the currents between control and test group.
Compound,protection from anoxic death after OGD [1],survival / resilience following exposure to OGD (retinal explants),resilience to OGD (H9c2 cells),"protection against OGD-induced death, pre-treatment (H9c2 cells)",Demonstrated Reduction of Proliferation at or below 10 μM Inhibitor concentration [2],proliferation (B16F10 melanoma cells),Demonstrated Reduction of Proliferation at or below 10 μM Inhibitor concentration (B16F10 melanoma cells),"IC50 (B16F10 melanoma cells; B16-F10, 72 h, B16-F10, Exp 1, 72 hours, read-out: IC50)","IC50 (B16F10 melanoma cells; B16-F10, 72 h, B16-F10, Exp 2, 72 hours, read-out: IC50)","IC50 (B16F10 melanoma cells; B16-F10, B16-F10, mean of Exp 1 and Exp 2, read-out: Mean IC50)","TRPM7 currents, applied intracellularly (TRPM7)","TRPM7 currents, extracellular application (TRPM7)","TRPM7 currents, extracellular application (TRPM7; listed as 6)","TRPM7 currents, extracellular application (TRPM7; listed as 11)","TRPM7 currents, extracellular application (TRPM7; listed as 21)"
COc1cc2c(cc1OC)C(c1sc3ccccc3c1Cl)=NCC2 [Compound M6],protection of cultures from anoxic death is observed,enhanced their resilience to OGD,enhanced their resilience to OGD,comparable result to treatment after the onset of anoxia,Weri retinoblastoma,reduce the proliferation,B16F10 melanoma,16.5 µM,14.3 µM,15.6 µM,do not affect TRPM7 currents,reduces current through the TRPM7 channel,inhibited ion currents through TRPM7,,
O=C(Nc1ccc(F)cc1)C(Sc1ccc(Cl)cc1)c1ccccc1 (centres unmarked) [Compound M11],protection has been demonstrated,promote survival,enhanced their resilience to OGD,less robust rescue of the OGD-induced death,Weri retinoblastoma,reduce the proliferation,B16F10 melanoma,,,,,highest level of inhibition,,inhibited ion currents through TRPM7,
Cc1c(Cc2ccc(Cl)c(Cl)c2)c(=O)oc2cc(O)ccc12 [Compound M21],protection of cultures from anoxic death is observed,promote survival; also recorded: enhanced their resilience to OGD,enhanced their resilience to OGD,,Weri retinoblastoma,,,,,,do not affect TRPM7 currents,highest level of inhibition,,,inhibited ion currents through TRPM7
